For one test, the system named is cpA neurons. The test is described as follows: extracellular single-sensillum electrophysiology: activation of cpA neuronal activity. The conditions noted are these: Table 6; single compounds; increase over baseline cpA neuronal activity.
In another test the test system is female mosquitoes. Description: whole plant or invertebrate. The conditions noted are these: 2 h; for mortality at 200 µg/mL: read-out: % mortality with 0.2 mg/ml; for mortality at 2000 µg/mL: read-out: % mortality with 2 mg/ml.
A further test relates to larvae. The test is described as follows: larvicidal activity assay. In kind it is in vivo. To be noted: 24 hour exposure, dead larvae / total larvae; for pest or weed control at 0.25 %: read-out: % Lethality with 0.25% compound conc.; for pest or weed control at 100 ppm: read-out: % Lethality at 100 ppm. On the procedure:
A 6-well plate (Corning Life Sciences, Tewksbury, Mass.) is used to test a compound's larvicidal activity. […] After a 24 hour exposure, the number of dead larvae are counted and recorded.
The results are presented in Table 17 as % lethality (the number of dead larvae divided by the total number of larvae).

The record followed here is US20150216182A1, “COMPOSITIONS AND METHODS OF THE ATTRACTION AND REPULSION OF INSECTS” (Olfactor Laboratories, Inc., priority 2012, published 2015).

For the compound `C=CC(=O)CC` [OLI0023, ethylvinylketone], the Class entry with cpA neurons is “Moderate Activator (Moderate activators yield an increase in neuronal activity that is between 40 and 60 spk/sec over baseline neuronal activity)”.
Turning to `Cc1ccc(C=O)c(C)c1` [OLI0030, 2,4-dimethyl benzaldehyde], in the test with cpA neurons, the Class entry was “Mild Activator (mild activators yield an increase in neuronal activity that is between 20 and 40 spk/sec over baseline neuronal activity)”.
Turning to `CC1=CC(C)C(C=O)CC1` (centres unmarked) [OLI0031, 2,4-dimethyl-3-cyclohexene-carboxaldehyde], the Class result with cpA neurons was “Mild Activator (mild activators yield an increase in neuronal activity that is between 20 and 40 spk/sec over baseline neuronal activity)”.
As for `COc1cc(C)ccc1O` [OLI0033, 2-methoxy-4-methylphenol], in the test with cpA neurons, the Class entry is “Mild Activator (mild activators yield an increase in neuronal activity that is between 20 and 40 spk/sec over baseline neuronal activity)”.
Turning to `CC(C=O)c1ccccc1` (centres unmarked) [OLI0034, 2-phenylpropionaldehyde], the Class entry with cpA neurons is “Mild Activator (mild activators yield an increase in neuronal activity that is between 20 and 40 spk/sec over baseline neuronal activity)”.
Turning to `CCCC(=O)CC` [OLI0035, 3-hexanone], the Class entry with cpA neurons was “Mild Activator (mild activators yield an increase in neuronal activity that is between 20 and 40 spk/sec over baseline neuronal activity)”.
`CCc1ccc(C=O)cc1` [OLI0036, 4-ethylbenzaldehyde]: the Class result in the test on cpA neurons was “Mild Activator (mild activators yield an increase in neuronal activity that is between 20 and 40 spk/sec over baseline neuronal activity)”.
In the case of `CC1=CC(=O)CC(C)(C)C1=O` [OLI0037, 4-oxoisophorone], the Class result with cpA neurons was “Mild Activator (mild activators yield an increase in neuronal activity that is between 20 and 40 spk/sec over baseline neuronal activity)”.
Still for that read-out and setting: the result for `CC(=O)c1cnccn1` [OLI0038, acetyl-2-pyrazine] reads “Mild Activator (mild activators yield an increase in neuronal activity that is between 20 and 40 spk/sec over baseline neuronal activity)”; that for `CCCC(=O)OC(C)C(C)=O` (centres unmarked) [OLI0039, butan-3-one-2yl butanoate], “Mild Activator (mild activators yield an increase in neuronal activity that is between 20 and 40 spk/sec over baseline neuronal activity)”.
Turning to `COC(=O)CCC(=O)OC` [OLI0040, dimethyl succinate], the Class result in the test with cpA neurons is “Mild Activator (mild activators yield an increase in neuronal activity that is between 20 and 40 spk/sec over baseline neuronal activity)”.
As to `CCOC=O` [OLI0044, ethylformate], the Class entry in the test on cpA neurons is “Mild Activator (mild activators yield an increase in neuronal activity that is between 20 and 40 spk/sec over baseline neuronal activity)”.
As for `CCOC(=O)C(C)C` [OLI0045, ethylisobutyrate], in the test on cpA neurons, the Class result was “Mild Activator (mild activators yield an increase in neuronal activity that is between 20 and 40 spk/sec over baseline neuronal activity)”.
Take `CCOC(=O)CC(C)C` [OLI0046, ethylisovalerate]: in the test on cpA neurons, the Class result is “Mild Activator (mild activators yield an increase in neuronal activity that is between 20 and 40 spk/sec over baseline neuronal activity)”.
With `O=C(C=Cc1ccccc1)OCCc1ccccc1` [OLI0103, phenethyl cinnamate], in the test on female mosquitoes, the mortality at 200 µg/mL was 5% and the mortality at 2000 µg/mL was found to be 25%. In the test with larvae (0.25% compound), the pest or weed control at 0.25 % turned out to be 0%. Also, the pest or weed control at 100 ppm in the test on larvae (100 ppm compound) stood at 0%.
For the compound `CC(C)C(=O)OCC=Cc1ccccc1` [OLI0108, cinnamyl isobutyrate], in the test with female mosquitoes, the mortality at 200 µg/mL came to 10% and the mortality at 2000 µg/mL was 100%.
Taken in the same sequence, the figures for `O=Cc1ccccc1O` [OLI0116, Salicylaldehyde] were 0% and 0%.
For the compound `CC(C)C(=O)OCC=Cc1ccccc1` [OLI0117, cinnamyl isobutyrate], in the test on larvae (0.25% compound), the pest or weed control at 0.25 % turned out to be 100%. Also, the pest or weed control at 100 ppm in the test on larvae (100 ppm compound) was determined as 0%.
As to Ultrazur [OLI0118], the “% Lethality with 0.25% compound conc.” value in the test on larvae (0.25% compound) was 100% lethal. Also, the “% Lethality at 100 ppm” value in the test on larvae (100 ppm compound) is 0% lethal.
